Values quoted from earlier work as cited in patent US6652866B1 (priority 1997, dated 2003).

Test system: scrapie
Conditions: hamsters

C[C@@H]1[C@H](O)[C@@H](C)/C=C/C=C/C=C/C=C/C=C/C=C/C=C/[C@H](O[C@@H]2O[C@H](C)[C@@H](O)[C@H](N)[C@@H]2O)C[C@@H]2O[C@](O)(C[C@@H](O)C[C@@H](O)[C@H](O)CC[C@@H](O)C[C@@H](O)CC(=O)O[C@H]1C)C[C@H](O)[C@H]2C(=O)O [amphoteracin-b]
incubation time of scrapie: prolonged the incubation time | prevention of onset of neurological symptoms, neuronal destruction and death: ineffective
